Legend:
[1] = test system: monoclonal antibody produced by hybridoma line 28E2; experiment: CEDIA tacrolimus assay specificity (cross-reactivity); format: binding, mice; conditions: for Concentration Measured: added to whole blood, concentration tested 20 ng/ml
Procedure: Antibodies obtained using any of the aforementioned techniques are screened or purified not only for their ability to bind specifically with tacrolimus, but also for low cross-reactivity with potential interfering substances. “Cross reactivity” is determined in a quantitative immunoassay by establishing a standard curve using known dilutions of tacrolimus or ascomycin. […] The percent (%) cross-reactivity is the measured concentration divided by the tested concentration multiplied by 100.
If tacrolimus is present in the sample, it binds to the antibody, leaving the ED portion of the competing conjugate free to restore enzyme activity upon complementation reaction with enzyme acceptor (EA) fragments in the assay reaction mixture. The active enzyme is then capable of producing a quantifiable reaction product when exposed to appropriate substrate. If drug is not present in the sample, the antibody binds to the ED-drug conjugate inhibiting association of the ED fragments with the EA fragments, thus inhibiting restoration of enzyme activity. The amount of reaction product and resultant absorbance change are proportional to the amount of drug in the sample.
Each of four naturally occurring metabolites of tacrolimus, at a concentration of approximately 20 ng/ml, was added separately to a whole blood specimen. […] The cross reactivity of the metabolites was calculated as:
(measured concentration)/20ng/ml×100%
In another experiment, commonly co-administered immunosuppressants were added to whole blood and tested for cross-reactivity.

[2] = test system: antibodies that bind rapamycin; conditions: taught by Sedrani et al.; cited from earlier work
[3] = tacrolimus metabolites, 20 ng/ml in whole blood, (measured concentration)/20 ng/ml x 100%
[4] = other immunosuppressants in whole blood, tested concentration 100,000 ng/ml

SMILES	Concentration Measured [1] [ng/mL]	% Cross-Reactivity [1, 3] [%]	% Cross-Reactivity [1, 4] [%]	cross-reactivity of rapamycin-binding antibodies [2]
C=CCC1C=C(C)CC(C)CC(OC)C2OC(O)(C(=O)C(=O)N3CCCCC3C(=O)OC(C(C)=CC3CCC(O)C(O)C3)C(C)C(O)CC1=O)C(C)CC2O (stereo not drawn) [13,31-O-didemethyl-T, 13,31-O-didemethyl tacrolimus]	0.57	2.9	–	–
C=CCC1C=C(C)CC(C)CC(OC)C2OC(O)(C(=O)C(=O)N3CCCCC3C(=O)OC(C(C)=CC3CCC(O)C(OC)C3)C(C)C(O)CC1=O)C(C)CC2O (stereo not drawn) [13-O-demethyl-T, 13-O-demethyl tacrolimus]	7.5	37.7	–	–
C=CCC1C=C(C)CC(C)CC(O)C2OC(O)(C(=O)C(=O)N3CCCCC3C(=O)OC(C(C)=CC3CCC(O)C(OC)C3)C(C)C(O)CC1=O)C(C)CC2OC (stereo not drawn) [15-O-demethyl-T, 15-O-demethyl tacrolimus]	0.95	4.7	–	–
C=CCC1C=C(C)CC(C)CC(OC)C2OC(O)(C(=O)C(=O)N3CCCCC3C(=O)OC(C(C)=CC3CCC(O)C(O)C3)C(C)C(O)CC1=O)C(C)CC2OC (stereo not drawn) [31-O-demethyl-T, 31-O-demethyl tacrolimus]	0.98	4.9	–	–
C[C@]12CCC(=O)C=C1CC[C@@H]1[C@@H]2[C@@H](O)C[C@@]2(C)[C@H]1CC[C@]2(O)C(=O)CO [Hydrocorticol]	–	–	0.0	–
COc1c(C)c2c(c(O)c1C/C=C(\C)CCC(=O)O)C(=O)OC2 [Mycophenolic acid]	–	–	0.0	–
C[C@]12C=CC(=O)C=C1CC[C@@H]1[C@@H]2[C@@H](O)C[C@@]2(C)[C@H]1CC[C@]2(O)C(=O)CO [Prednisolone]	–	–	0.0	–
C[C@]12C=CC(=O)C=C1CC[C@@H]1[C@@H]2C(=O)C[C@@]2(C)[C@H]1CC[C@]2(O)C(=O)CO [Prednisone]	–	–	0.0	–
C=CC[C@@H]1/C=C(\C)C[C@H](C)C[C@H](OC)[C@H]2O[C@@](O)(C(=O)C(=O)N3CCCC[C@H]3C(=O)O[C@H](/C(C)=C/[C@@H]3CC[C@@H](O)[C@H](OC)C3)[C@H](C)[C@@H](O)CC1=O)[C@H](C)C[C@@H]2OC [tacrolimus]	20.0	100.0	–	greater than 50%

Source: patent US20110003314A1, “Hapten, Immunogens and Derivatives of Ascomycin Useful for Preparation of Antibodies and Immunoassays” (MICROGENICS CORPORATION, priority 2004, published 2011)
